# Patent US12234221B2, “Pyridine carboxamide compounds for inhibiting NAV1.8” (Lieber Institute, Inc., priority 2018, dated 2025)
# Target: T1, human Nav1.8 (hNav1.8) ion channel (Homo sapiens, UniProt Q9Y5Y9)
# T1 construct: expressed in transfected cells; host or cells: HEK293
# Test: Nav1.8 channel inhibition, estimated IC50 (one or more of: fluorescence inhibition assay, PatchXpress, IonFlux HT automated patch clamp)
# Assay type: cell-based
# Details: HEK293 cells stably expressing hNav1.8; method used per compound not stated; read-out: Activity range (estimated IC50)
# Method: The ability of pyridine carboxamide derivatives exemplified above to inhibit the Nav1.8 channel was determined using one or more of the methods described below.
# HEK Nav1.8 β1/β2 Stably Expressing Cell Line
# A HEK293 cell line stably expressing the human Nav1.8 (hNav1.8) ion channel with β1/β2 subunits was constructed. The cell line is suitable for IC50 determination in fluorescence and electrophysiological based assays. It is also suitable to form mechanism of action pharmacology studies in electrophysiological assays. HEK293 Nav 1.8 cells are grown as adherent monolayers in DMEM/high glucose media, 10% fetal bovine serum, Na pyruvate (2 mM), Hepes (10 mM) with selection agents G418 (400 mg/L) and puromycin (0.5 mg/L) at 37 degrees C., 10% CO2.
# Nav 1.8 Fluorescence Inhibition Assay
# Compounds were made up to or supplied as a 10-mM stock solution using DMSO as the vehicle. Concentration-response curves were generated using a Matrix multichannel pipettor. Compound source plates were made by diluting 10 mM compound stocks to create 500 μM (100×) solutions in DMSO in 96-well v-bottom plates. Compounds were then serially diluted in 100% DMSO to generate a 5 point, 4-fold dilution scheme dose response curve. 2 μL of the 100× dose response curves was then added to preincubation and stimulation assay plates. 100 μL of pre-incubation buffer and 200 μL of stimulation buffer were then added to the plates resulting in a final assay test concentration range of 5 μM to 0.02 μM with a final DMSO concentration of 1%.
# On the day of assay, plates were washed to remove cell culture media using 2K EBSS buffer (135 mM NaCl, 2 mM KCl, 5 mM Glucose, 2 mM CaCl2), 1 mM MgCl2, 10 mM HEPES, pH 7.4). The Na-sensitive fluorescent dye, Asante Natrium Green-2 (ANG-2) is incubated for 60 min to allow equilibration and then washed with 2K EBSS. Plates are the transferred to a fluorescence plate reader (FLIPR™, Molecular Devices) for fluorescence measurement using an excitation wavelength of 490 nm and an emission wavelength of 565 nm. Compounds are pre-incubated at for 5 min at final test concentration in the presence of ouabain (30 μM) to inhibit Na+ efflux through Na+/K+ exchanger. Following the pre-incubation phase, hNav1.8 channels are stimulated with 10 μM of the pyrethroid deltamethrin to prevent channel inactivation. The assay was run for 15 min with vehicle and 30 μM tetracaine serving as negative and positive controls, respectively. The peak change in fluorescence relative to negative and positive control wells was calculated and fit with a logistic equation to determine IC50.
# PatchXpress Nav 1.8 Inhibition Assay
# HEK-Nav1.8 β1/β2 cells were recorded in whole cell patch-clamp using the PatchXpress automated patch clamp platforms (Molecular Devices). Cells suspensions were obtained by trypsinization of adherent monolayers, followed by gentle rocking for minimally 30 min. Compounds were prepared from 10 mM DMSO stocks.
# Nav1.8 channel variants were evaluated using Protocol 1 (FIG. 2) in which cells were initially voltage clamped at a holding potential of −100 mV to maintain Nav1.8 in a closed resting state. After current amplitude becomes stable, the mid-point voltage of steady state inactivation was determined for each cell using a series of 5 sec conditioning steps to increasingly depolarized voltages (−100 to 0 mV) The holding potential was then reset to a voltage that produces ˜50% inactivation (Vhalf−set automatically via PatchXpress scripts) so that closed and inactivated channel inhibition can be assessed. Protocol 1 was run at a frequency of 0.1 Hz until current amplitude is steady (automatically determined by PatchXpress scripts). The effect of test reagent on Nav current amplitude was monitored using custom PatchXpress stability scripts which determines the timing of compound addition and washout. Data were processed and analyzed using DataXpress 2.0 (Molecular Devices). […]
# T1 sequence (Q9Y5Y9 whole entry): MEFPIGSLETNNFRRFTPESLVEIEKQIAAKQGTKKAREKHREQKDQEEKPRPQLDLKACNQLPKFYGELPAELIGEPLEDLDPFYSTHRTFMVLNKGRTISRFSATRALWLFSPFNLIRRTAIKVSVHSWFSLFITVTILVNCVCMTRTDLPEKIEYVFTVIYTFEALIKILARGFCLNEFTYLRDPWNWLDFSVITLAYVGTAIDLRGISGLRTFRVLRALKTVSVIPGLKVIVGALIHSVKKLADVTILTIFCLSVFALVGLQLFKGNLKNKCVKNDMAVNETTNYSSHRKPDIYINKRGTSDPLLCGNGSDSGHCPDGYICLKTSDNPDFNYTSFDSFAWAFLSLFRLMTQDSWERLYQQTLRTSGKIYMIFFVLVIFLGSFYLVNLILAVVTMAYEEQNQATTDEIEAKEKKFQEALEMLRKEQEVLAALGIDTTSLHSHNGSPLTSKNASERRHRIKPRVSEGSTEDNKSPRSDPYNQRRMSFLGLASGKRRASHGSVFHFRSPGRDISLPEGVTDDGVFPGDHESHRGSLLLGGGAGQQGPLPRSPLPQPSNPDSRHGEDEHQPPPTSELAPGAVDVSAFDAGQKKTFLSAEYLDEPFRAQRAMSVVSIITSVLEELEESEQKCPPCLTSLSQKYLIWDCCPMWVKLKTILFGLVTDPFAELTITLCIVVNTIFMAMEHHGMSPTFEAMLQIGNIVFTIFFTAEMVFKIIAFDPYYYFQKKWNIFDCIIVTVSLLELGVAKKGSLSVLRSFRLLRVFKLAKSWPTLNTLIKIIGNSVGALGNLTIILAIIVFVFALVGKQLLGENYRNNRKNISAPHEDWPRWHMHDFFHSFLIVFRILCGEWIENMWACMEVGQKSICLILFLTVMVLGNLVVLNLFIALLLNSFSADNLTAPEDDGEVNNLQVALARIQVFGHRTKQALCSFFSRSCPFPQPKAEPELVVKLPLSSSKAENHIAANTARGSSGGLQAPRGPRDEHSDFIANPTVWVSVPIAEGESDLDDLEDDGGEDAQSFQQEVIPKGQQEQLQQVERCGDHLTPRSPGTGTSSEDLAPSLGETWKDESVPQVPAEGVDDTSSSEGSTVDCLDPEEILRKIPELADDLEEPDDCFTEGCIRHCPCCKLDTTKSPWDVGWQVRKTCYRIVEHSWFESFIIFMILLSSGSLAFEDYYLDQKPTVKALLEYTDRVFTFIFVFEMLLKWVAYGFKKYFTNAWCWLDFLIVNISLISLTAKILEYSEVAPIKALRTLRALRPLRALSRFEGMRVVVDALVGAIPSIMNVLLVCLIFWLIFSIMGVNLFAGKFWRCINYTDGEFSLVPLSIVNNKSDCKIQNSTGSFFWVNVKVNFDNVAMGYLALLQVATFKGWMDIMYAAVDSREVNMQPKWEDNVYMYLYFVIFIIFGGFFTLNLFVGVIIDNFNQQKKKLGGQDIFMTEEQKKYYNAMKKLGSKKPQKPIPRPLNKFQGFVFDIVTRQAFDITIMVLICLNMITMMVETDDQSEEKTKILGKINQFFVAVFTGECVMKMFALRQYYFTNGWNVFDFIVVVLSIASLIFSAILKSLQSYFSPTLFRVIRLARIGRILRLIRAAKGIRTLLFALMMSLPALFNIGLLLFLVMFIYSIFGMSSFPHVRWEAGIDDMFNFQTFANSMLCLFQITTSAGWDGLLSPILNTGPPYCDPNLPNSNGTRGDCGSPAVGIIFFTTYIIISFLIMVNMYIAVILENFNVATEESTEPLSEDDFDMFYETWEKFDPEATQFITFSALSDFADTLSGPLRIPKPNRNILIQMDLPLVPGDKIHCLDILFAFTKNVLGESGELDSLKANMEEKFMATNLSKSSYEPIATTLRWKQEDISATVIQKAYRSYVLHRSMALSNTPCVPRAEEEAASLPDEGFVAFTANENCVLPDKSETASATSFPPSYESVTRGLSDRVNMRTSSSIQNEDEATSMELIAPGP
row,Structure (SMILES),IC50
1,"O=C(Nc1ccncc1)c1cc(C(F)(F)F)cnc1Oc1ccc(OC(F)(F)F)cc1 [Example 127, N-(4-pyridyl)-2-[4-(trifluoromethoxy)phenoxy]-5-(trifluoromethyl)pyridine-3-carboxamide]",< 500 nM
2,"CS(=O)(=O)c1ccc(NC(=O)c2cc(C(F)(F)F)cnc2Oc2ccc(OC(F)(F)F)cc2Cl)cc1 [Example 152, 2-[2-chloro-4-(trifluoromethoxy)phenoxy]-N-(4-methylsulfonylphenyl)-5-(trifluoromethyl)pyridine-3-carboxamide]",< 500 nM
3,"Cn1ncnc1NC(=O)c1cc(C(F)(F)F)cnc1Oc1ccc(OC(F)(F)F)cc1Cl [Example 169, 2-[2-chloro-4-(trifluoromethoxy)phenoxy]-N-(2-methyl-1,2,4-triazol-3-yl)-5-(trifluoromethyl)pyridine-3-carboxamide]",> 1000 nM
4,"O=C(Nc1cccnc1)c1cc(C(F)(F)F)cnc1Oc1ccc(OC(F)(F)F)cc1 [Example 126, N-(3-pyridyl)-2-[4-(trifluoromethoxy)phenoxy]-5-(trifluoromethyl)pyridine-3-carboxamide]",500 to 1000 nM
5,"CS(=O)(=O)c1cccc(NC(=O)c2cc(C(F)(F)F)cnc2Oc2ccc(F)c(F)c2)c1 [Example 47, 2-(3,4-difluorophenoxy)-N-(3-methylsulfonyl-phenyl)-5-(trifluoromethyl)pyridine-3-carboxamide]",< 500 nM
6,"COc1cc(F)ccc1Oc1ncc(C2CC2)cc1C(=O)Nc1cccc(S(C)(=O)=O)c1 [Example 112, 5-cyclopropyl-2-(4-fluoro-2-methoxy-phenoxy)-N-(3-methylsulfonylphenyl)pyridine-3-carboxamide]",> 1000 nM
7,"COc1cc(F)ccc1Oc1ncc(C(F)(F)F)cc1C(=O)Nc1ccncn1 [Example 12, 2-(4-fluoro-2-methoxy-phenoxy)-N-pyrimidin-4-yl-5-(trifluoromethyl)pyridine-3-carboxamide]",< 500 nM
8,"CN=S(C)(=O)c1cccc(NC(=O)c2cc(C(F)(F)F)cnc2Oc2ccc(F)cc2F)c1 (centres unmarked) [Example 175, 2-(2,4-difluorophenoxy)-N-[3-(N,S-dimethylsulfonimidoyl)phenyl]-5(trifluoromethyl)pyridine-3-carboxamide]",< 500 nM
9,"O=C(Nc1ccnnc1)c1cnc(C(F)(F)F)cc1Oc1ccc(OC(F)F)cc1 [Example 97, 4-[4-(difluoromethoxy)phenoxy]-N-pyridazin-4-yl-6-(trifluoromethyl)pyridine-3-carboxamide]",> 1000 nM
10,"CS(=N)(=O)c1cccc(NC(=O)c2cc(C(F)(F)F)cnc2Oc2ccc(OC(F)(F)F)cc2)c1 (single isomer, unassigned) [Example 131, N-[3-(methylsulfonimidoyl)phenyl]-2-[4-(trifluoromethoxy)phenoxy]-5-(trifluoromethyl)pyridine-3-carboxamide]",< 500 nM
11,"COc1cc(F)ccc1Oc1ncc(C(F)(F)F)cc1C(=O)Nc1ccc2ncsc2c1 [Example 1, N-(1,3-benzothiazol-6-yl)-2-(4-fluoro-2-methoxy-phenoxy)-5-(trifluoromethyl)pyridine-3-carboxamide]",> 1000 nM
12,"Cc1cc(F)ccc1Oc1ncc(C(F)(F)F)cc1C(=O)Nc1cccc(S(C)(=N)=O)c1 (centres unmarked) [Example 115, 2-(4-fluoro-2-methyl-phenoxy)-N-[3-(methylsulfonimidoyl)phenyl]-5-(trifluoromethyl)pyridine-3-carboxamide]",< 500 nM
13,"O=C(Nc1ccc[n+]([O-])c1)c1cnc(C(F)(F)F)cc1Oc1ccc(F)cc1F [Example 89, 4-(2,4-difluorophenoxy)-N-(1-oxidopyridin-1-ium-3-yl)-6-(trifluoromethyl)pyridine-3-carboxamide]",> 1000 nM
14,"CS(=O)(=O)c1cccc(NC(=O)c2cc(C(F)(F)F)cnc2Oc2ccc(SC(F)(F)F)cc2)c1 [Example 51, N-(3-methylsulfonyl-phenyl)-5-(trifluoromethyl)-2-[4-(trifluoromethyl-sulfanyl)phenoxy]pyridine-3-carboxamide]",< 500 nM
15,"Cc1cc(F)ccc1Oc1cc(C(F)(F)F)ncc1C(=O)Nc1cccc(S(C)(=N)=O)c1 (centres unmarked) [Example 93, 4-(4-fluoro-2-methyl-phenoxy)-N-[3-(methylsulfonimidoyl)phenyl]-6-(trifluoromethyl)pyridine-3-carboxamide]",> 1000 nM
16,"Cc1cc(F)ccc1Oc1ncc(C(F)(F)F)cc1C(=O)Nc1ccnnc1 [Example 116, 2-(4-fluoro-2-methyl-phenoxy)-N-pyridazin-4-yl-5-(trifluoromethyl)pyridine-3-carboxamide]",> 1000 nM
17,"CS(=O)(=O)c1cccc(NC(=O)c2cc(C(F)(F)F)cnc2Oc2ccc(C(F)(F)F)nc2)c1 [Example 57, N-(3-methylsulfonyl-phenyl)-5-(trifluoromethyl)-2-[[6-(trifluoromethyl)-3-pyridyl]oxy]pyridine-3-carboxamide]",> 1000 nM
18,"CCS(=O)(=O)c1cccc(NC(=O)c2cc(C(F)(F)F)cnc2Oc2ccc(OC(F)(F)F)cc2Cl)c1 [Example 143, 2-[2-chloro-4-(trifluoromethoxy)phenoxy]-N-(3-ethylsulfonylphenyl)-5-(trifluoromethyl)pyridine-3-carboxamide]",500 to 1000 nM
19,"COc1cc(Cl)ccc1Oc1ncc(C(F)(F)F)cc1C(=O)Nc1cccc(S(C)(=O)=O)c1 [Example 26, 2-(4-chloro-2-methoxy-phenoxy)-N-(3-methylsulfonylphenyl)-5-(trifluoromethyl)pyridine-3-carboxamide]",< 500 nM
20,"Cc1cc(F)ccc1Oc1cc(C(F)(F)F)ncc1C(=O)Nc1ccnnc1 [Example 95, 4-(4-fluoro-2-methyl-phenoxy)-N-pyridazin-4-yl-6-(trifluoromethyl)pyridine-3-carboxamide]",< 500 nM
21,"Cc1cccc(C)c1Oc1ncc(C(F)(F)F)cc1C(=O)Nc1cccc(S(C)(=O)=O)c1 [Example 33, 2-(2,6-dimethylphenoxy)-N-(3-methylsulfonylphenyl)-5-(trifluoromethyl)pyridine-3-carboxamide]",> 1000 nM
22,"COc1cc(F)ccc1Oc1ncc(C(F)(F)F)cc1C(=O)Nc1cccc(S(C)(=O)=O)c1 [Example 35, 2-(4-fluoro-2-methoxy-phenoxy)-N-(3-methylsulfonyl-phenyl)-5-(trifluoromethyl)pyridine-3-carboxamide]",< 500 nM
23,"O=C(Nc1ccc[n+]([O-])c1)c1cnc(C(F)(F)F)cc1Oc1ccc(OC(F)(F)F)cc1Cl [Example 83, 4-[2-chloro-4-(trifluoromethoxy)phenoxy]-N-(1-oxidopyridin-1-ium-3-yl)-6-(trifluoromethyl)pyridine-3-carboxamide]",< 500 nM
24,"CS(=O)(=O)c1cccc(NC(=O)c2cc(C(F)(F)F)cnc2Oc2cc(F)cc(F)c2)c1 [Example 49, 2-(3,5-difluorophenoxy)-N-(3-methylsulfonyl-phenyl)-5-(trifluoromethyl)pyridine-3-carboxamide]",> 1000 nM
25,"O=C(Nc1ccnc(F)c1)c1cc(C(F)(F)F)cnc1Oc1ccc(OC(F)(F)F)cc1Cl [Example 165, 2-[2-chloro-4-(trifluoromethoxy)phenoxy]-N-(2-fluoro-4-pyridyl)-5-(trifluoromethyl)pyridine-3-carboxamide]",< 500 nM
26,"COc1cc(F)ccc1Oc1nc2c(cc1C(=O)Nc1cccc(S(C)(=O)=O)c1)CCC2 [Example 120, 2-(4-fluoro-2-methoxy-phenoxy)-N-(3-methylsulfonylphenyl)-6,7-dihydro-5H-cyclopenta[b]pyridine-3-carboxamide]",< 500 nM
